Test [1] can be described thus: Neuroprotective activity against rat cortical cells assessed as glutamate-induced neurotoxicity by MTT assay. The class given is functional, cell-based.
The nature of test [2]: Neuroprotective activity against rat cortical cells at 0.1 uM assessed as glutamate-induced neurotoxicity by MTT assay. The class given is functional.
The nature of test [3]: Neuroprotective activity against rat cortical cells at 10.0 uM assessed as glutamate-induced neurotoxicity by MTT assay. The format is functional. (In general: Formazan colour is commonly taken as a measure of viable cells.)
A short description of test [4]: Neuroprotective activity against rat cortical cells at 1.0 uM assessed as glutamate-induced neurotoxicity by MTT assay. The format is functional.

Counter-ions that a name gives are not always drawn.

In the case of `CC1(C)OC(=O)C=C[C@]2(C)[C@H]3CC[C@@]4(C)[C@H](c5ccoc5)OC(=O)[C@H]5O[C@]54[C@]3(C)C(=O)C[C@@H]12` [OBACUNONE], the EC50 – broadly, the concentration at which the effect is half-maximal – in test [1] amounted to 39 nM. The Emax (in general, the size of the effect at its maximum, as opposed to the concentration needed) at 0.1 µM in test [2] stood at 63.9%.

As to `CC1=C2C(=O)O[C@@H](c3ccoc3)[C@]2(C)CC[C@@H]1O`, the half-maximal effective concentration (EC50) in test [1] turned out to be 98 nM. Besides, the Emax at 0.1 µM in test [2] came out at 51.1%.

In the case of `C[C@H]1C2=C(O)C(=O)O[C@@H](c3ccoc3)[C@]2(C)CC[C@@H]1O[C@@H]1O[C@H](CO)[C@@H](O)[C@H](O)[C@H]1O` [DICTAMNUSINE], in test [1], the EC50 was determined as 42 nM. In test [2], the maximal response (Emax) at 0.1 µM was 62.1%.

For `CC1=C2[C@H](O)C(=O)O[C@@H](c3ccoc3)[C@]2(C)CC[C@H]1O` [DICTAMDIOL B], the Emax at 0.1 µM in test [2] turned out to be 45.6%.

For `CC1(C)O[C@H]2CC(=O)OC[C@]23[C@H]2CC[C@@]4(C)[C@H](c5ccoc5)OC(=O)[C@H]5O[C@]54[C@]2(C)[C@@H](O)C(=O)[C@@H]13` [RUTAEVIN], the EC50 in test [1] is 3060 nM. Further, the Emax at 10 µM in test [3] is 65.4%.

With `CC1=CCC[C@@]2(C)[C@H](c3ccoc3)OC(=O)[C@H]3O[C@]132` [CALODENDROLIDE], the EC50 in test [1] amounted to 19 nM. Also, the Emax at 0.1 µM in test [2] came to 71.9%.

Regarding `CC1=C2C(=O)O[C@@H](c3ccoc3)[C@]2(C)CCC1=O` [FRAXINELLONONE], the Emax at 1 µM in test [4] stood at 47.6%.

Turning to `C[C@]12N[C@H](Cc3ccccc31)c1ccccc12` [DIZOCILPINE MALEATE], in test [1], the EC50 is 480 nM. Moreover, in test [3], the maximum response (Emax) at 10 µM was 83.8%.

Turning to `CC1=C2[C@H](O)C(=O)O[C@@H](c3ccoc3)[C@]2(C)CC[C@@H]1O` [DICTAMDIOL], the Emax at 0.1 µM in test [2] turned out to be 35.3%.

With `CC1=C2[C@@H](O)C(=O)O[C@@H](c3ccoc3)[C@]2(C)CC[C@@H]1O` [DICTAMDIOL A], the EC50 in test [1] was found to be 68 nM. Besides, the Emax at 0.1 µM in test [2] was 68.1%.

`CC1(C)O[C@H]2CC(=O)OC[C@]23[C@H]2CC[C@@]4(C)[C@H](c5ccoc5)OC(=O)[C@H]5O[C@]54[C@]2(C)C(=O)C[C@@H]13` [LIMONIN]: the EC50 in test [1] worked out at 18 nM. Moreover, the maximum response (Emax) at 0.1 µM in test [2] was 75.9%.

Turning to `CC1=C2C(=O)O[C@@H](c3ccoc3)[C@]2(C)CC[C@H]1O[C@@H]1O[C@H](CO)[C@@H](O)[C@H](O)[C@H]1O`, in test [1], the EC50 stood at 705 nM. Also, the Emax at 1 µM in test [4] was found to be 53%.

With `CC1=C2C(=O)O[C@@H](c3ccoc3)[C@]2(C)CCC1` [FRAXINELLONE], the concentration giving a half-maximal response (EC50) in test [1] was 22 nM. In test [2], the Emax at 0.1 µM was found to be 70.4%.

These data come from ChEMBL document CHEMBL1144759, “Neuroprotective limonoids of root bark of Dictamnus dasycarpus” (J Nat Prod, 2008).
